Among the data in ChEMBL document CHEMBL1128968, “Phosphinic acid inhibitors of matrix metalloproteinases” (Bioorg Med Chem Lett, 1996) are Ki, IC50 and inhibition values, retold here.

One experiment has as its target T1, Interstitial collagenase (Homo sapiens, UniProt P03956).
T1 sequence (P03956 whole entry): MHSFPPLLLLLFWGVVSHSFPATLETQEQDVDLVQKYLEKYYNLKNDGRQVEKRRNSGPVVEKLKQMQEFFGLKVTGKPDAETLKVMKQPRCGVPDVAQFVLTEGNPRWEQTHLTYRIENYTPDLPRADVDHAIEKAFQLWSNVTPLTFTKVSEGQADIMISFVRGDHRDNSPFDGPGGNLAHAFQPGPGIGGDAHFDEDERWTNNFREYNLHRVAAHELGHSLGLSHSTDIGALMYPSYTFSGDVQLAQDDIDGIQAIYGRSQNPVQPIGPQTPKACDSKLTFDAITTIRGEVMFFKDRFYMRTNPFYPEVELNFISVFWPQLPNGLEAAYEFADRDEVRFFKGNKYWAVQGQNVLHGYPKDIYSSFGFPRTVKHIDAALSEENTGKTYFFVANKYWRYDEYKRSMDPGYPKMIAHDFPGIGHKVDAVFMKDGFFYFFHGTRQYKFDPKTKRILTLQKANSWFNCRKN
The experiment is described as follows: Inhibition of collagenase-1 (MMP-1).

Experiment [1] deals with T2, 72 kDa type IV collagenase (Homo sapiens, UniProt P08253). Briefly: Inhibition of gelatinase-A (MMP-2).
Target sequence in this assay (P08253 whole entry): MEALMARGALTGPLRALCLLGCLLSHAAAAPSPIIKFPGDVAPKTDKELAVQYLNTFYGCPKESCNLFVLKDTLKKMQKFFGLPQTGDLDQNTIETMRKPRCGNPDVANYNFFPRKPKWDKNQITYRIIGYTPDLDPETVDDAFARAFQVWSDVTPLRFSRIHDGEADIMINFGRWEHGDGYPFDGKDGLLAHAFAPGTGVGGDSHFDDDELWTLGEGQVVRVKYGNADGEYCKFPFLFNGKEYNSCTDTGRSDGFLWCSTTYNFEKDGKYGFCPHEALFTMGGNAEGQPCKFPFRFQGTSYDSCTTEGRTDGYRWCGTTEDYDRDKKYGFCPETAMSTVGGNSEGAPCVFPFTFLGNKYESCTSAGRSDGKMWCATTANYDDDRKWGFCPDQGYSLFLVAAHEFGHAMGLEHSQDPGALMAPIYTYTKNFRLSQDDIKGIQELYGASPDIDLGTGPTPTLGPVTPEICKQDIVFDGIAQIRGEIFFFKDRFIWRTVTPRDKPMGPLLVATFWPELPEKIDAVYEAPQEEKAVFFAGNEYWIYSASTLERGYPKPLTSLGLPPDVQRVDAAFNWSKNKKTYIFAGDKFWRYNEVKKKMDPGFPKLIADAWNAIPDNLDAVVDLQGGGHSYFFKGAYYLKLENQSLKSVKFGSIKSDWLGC
Experiment [2] concerns the target T3, Stromelysin-1 (Homo sapiens, UniProt P08254). Briefly: Inhibition of stromelysin-1 (MMP-3).
Experiment [3] addresses T2, 72 kDa type IV collagenase. Briefly: Inhibition of gelatinase-A (MMP-2).
Target sequence in this assay (P08253 whole entry): as above
The target of experiment [4] is T2, 72 kDa type IV collagenase. Briefly: Inhibition of gelatinase-A (MMP-2) at a concentration of 1 uM.
Target sequence in this assay (P08253 110-660 limits assumed): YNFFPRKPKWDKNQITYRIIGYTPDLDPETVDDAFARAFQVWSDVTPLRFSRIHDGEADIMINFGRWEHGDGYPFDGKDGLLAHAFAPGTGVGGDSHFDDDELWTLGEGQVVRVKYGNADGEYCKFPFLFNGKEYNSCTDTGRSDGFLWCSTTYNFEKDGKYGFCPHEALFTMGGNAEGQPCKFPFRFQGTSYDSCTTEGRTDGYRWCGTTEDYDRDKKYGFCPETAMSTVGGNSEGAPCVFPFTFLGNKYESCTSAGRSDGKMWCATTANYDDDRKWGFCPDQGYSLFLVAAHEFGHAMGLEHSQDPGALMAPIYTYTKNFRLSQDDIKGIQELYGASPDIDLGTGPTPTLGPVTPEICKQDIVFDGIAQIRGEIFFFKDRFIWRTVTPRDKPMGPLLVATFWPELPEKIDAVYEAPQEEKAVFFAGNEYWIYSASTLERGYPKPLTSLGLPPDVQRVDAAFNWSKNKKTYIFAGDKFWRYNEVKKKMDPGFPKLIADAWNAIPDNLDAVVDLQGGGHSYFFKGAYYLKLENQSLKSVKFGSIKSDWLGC
In experiment [5] the target is T3, Stromelysin-1. Briefly: Inhibition of stromelysin-1 (MMP-3).

Molecules are shown by their SMILES. Bounds are passed on as bounds.

T3 sequence (P08254 whole entry): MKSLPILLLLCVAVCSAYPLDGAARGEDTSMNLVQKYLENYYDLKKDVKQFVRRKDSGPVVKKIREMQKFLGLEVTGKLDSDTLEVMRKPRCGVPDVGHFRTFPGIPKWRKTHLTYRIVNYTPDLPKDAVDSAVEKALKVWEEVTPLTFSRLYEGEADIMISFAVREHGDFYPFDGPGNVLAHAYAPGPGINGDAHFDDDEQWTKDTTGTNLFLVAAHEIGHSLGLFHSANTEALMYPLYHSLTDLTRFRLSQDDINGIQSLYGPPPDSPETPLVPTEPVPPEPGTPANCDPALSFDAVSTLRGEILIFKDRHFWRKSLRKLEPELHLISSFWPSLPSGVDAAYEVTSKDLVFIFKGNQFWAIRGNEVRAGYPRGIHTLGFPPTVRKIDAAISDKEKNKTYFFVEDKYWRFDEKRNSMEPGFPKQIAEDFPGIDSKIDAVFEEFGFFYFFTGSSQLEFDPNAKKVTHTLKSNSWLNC

Broadly, the Ki is the dissociation constant of the complex between target and ligand, obtained from inhibition or displacement. A high value points to weaker binding. Take `CCNC(=O)NCCCCP(=O)(O)C[C@@H](CCc1ccccc1)C(=O)N[C@@H](CC(C)C)C(=O)Nc1ccccc1`: the Ki was at least 10000 nM on Interstitial collagenase, 19 nM in experiment [1] and 17 nM at Stromelysin-1 [2].
As usually defined, the IC50 is the concentration at which inhibition is half-maximal. Higher therefore signals a need for much substance. `CC(C)C[C@H](NC(=O)[C@H](Cc1ccccc1)OP(=O)(O)CCCCN1C(=O)c2ccccc2C1=O)C(=O)NCc1ccccc1`: the results for the IC50 on Interstitial collagenase and on Stromelysin-1 [2] were over 32000 nM and over 200000 nM, respectively.
With `CC(C)C[C@H](NC(=O)[C@H](CCc1ccccc1)CP(=O)(O)CCCCNC(=O)Cc1ccccc1)C(=O)Nc1ccccc1`, the Ki is at least 10000 nM on Interstitial collagenase, 130 nM in experiment [3] and 30 nM at Stromelysin-1 [2].
In general, inhibition refers to the change of the read-out against control, counted positive when it falls. Read a high inhibition as a strong effect. For `CC(C)C[C@H](NC(=O)[C@H](CCc1ccccc1)CP(=O)(O)CCCCNC(=O)OCc1ccccc1)C(=O)Nc1ccccc1`, the values for the Ki at Interstitial collagenase and on Stromelysin-1 [2] were at least 10000 nM and 63 nM, respectively. This molecule yielded an inhibition in experiment [4] of 86%.
`COc1ccc(CC[C@H](CP(=O)(O)CCCCN2C(=O)c3ccccc3C2=O)C(=O)N[C@@H](CC(C)C)C(=O)Nc2ccccc2)cc1`: the values for the Ki (at Interstitial collagenase; in experiment [3]; on Stromelysin-1 [2]) were at least 10000 nM, 12 nM and 2.3 nM, respectively.
In the case of `CC(C)C[C@H](NC(=O)[C@H](CCc1ccccc1)CP(=O)(O)CCCCNC(=O)[C@H]1CCCN1C(=O)c1ccccc1)C(=O)Nc1ccccc1`, the Ki is at least 10000 nM on Interstitial collagenase and 24 nM at Stromelysin-1 [2]. The molecule further registered an inhibition in experiment [4] of 89%.
As for `CC(C)C[C@H](NC(=O)[C@H](CCc1ccccc1)CP(=O)(O)CCC(=O)NCCCc1ccccc1)C(=O)Nc1ccccc1`, the Ki on Interstitial collagenase was at least 10000 nM; on Stromelysin-1 [2], 670 nM. The molecule also displayed an inhibition in experiment [4] of 46%.
As for `CC(C)C[C@H](NC(=O)[C@H](CCc1ccccc1)CP(=O)(O)C/C=C/CN1C(=O)c2ccccc2C1=O)C(=O)Nc1ccccc1`, the Ki was at least 10000 nM at Interstitial collagenase, 4.8 nM in experiment [3] and 4.5 nM at Stromelysin-1 [2].
In the case of `CC(C)C[C@H](NP(=O)(O)CCCCN1C(=O)c2ccccc2C1=O)C(=O)N[C@@H](Cc1c[nH]c2ccccc12)C(=O)NCc1ccccc1`, the IC50 against Interstitial collagenase amounted to 50 nM; on Stromelysin-1 [2] it was 260 nM.
The matching figures for `CC(C)C[C@H](NC(=O)[C@H](Cc1ccccc1)NP(=O)(O)CCCCN1C(=O)c2ccccc2C1=O)C(=O)NCc1ccccc1`: 30000 nM and 2800 nM.
Take `CC(C)C[C@H](NC(=O)[C@H](CCc1ccccc1)CP(=O)(O)CCCCN1Cc2ccccc2C1=O)C(=O)Nc1ccccc1`: the Ki at Interstitial collagenase was at least 10000 nM; in experiment [3], 7.3 nM; at Stromelysin-1 [2], 5.5 nM.
With `CC(C)C[C@H](NC(=O)[C@H](CCc1ccccc1)CP(=O)(O)CCCCNC(=O)c1ccccc1)C(=O)Nc1ccccc1`, the Ki on Interstitial collagenase was at least 10000 nM; in experiment [3] it was 26 nM; on Stromelysin-1 [2], 5.7 nM.
The matching figures for `COC(=O)CCP(=O)(O)C[C@@H](CCc1ccccc1)C(=O)N[C@@H](CC(C)C)C(=O)Nc1ccccc1`: at least 10000 nM, 1300 nM and 520 nM.
On to `COc1ccccc1CC[C@H](CP(=O)(O)CCCCN1C(=O)c2ccccc2C1=O)C(=O)N[C@@H](CC(C)C)C(=O)Nc1ccccc1`, for which the Ki at Interstitial collagenase was at least 10000 nM; in experiment [3], 4400 nM; at Stromelysin-1 [2], 440 nM.
For the molecule `CC(=O)N1CCC[C@H]1C(=O)NCCCCP(=O)(O)C[C@@H](CCc1ccccc1)C(=O)N[C@@H](CC(C)C)C(=O)Nc1ccccc1`, the inhibition constant Ki on Interstitial collagenase is at least 10000 nM; in experiment [3], 6.1 nM; on Stromelysin-1 [2], 62 nM.
Consider `CC(C)C[C@H](NC(=O)[C@H](CCc1ccccc1)CP(=O)(O)CNC(=O)CN1C(=O)c2ccccc2C1=O)C(=O)Nc1ccccc1`, for which, at Stromelysin-1 [2], affinity was put at a Ki of 410 nM.
For `CC(C)C[C@H](NC(=O)[C@H](CCc1ccccc1)CP(=O)(O)CCC(=O)NCCc1ccccc1)C(=O)Nc1ccccc1`, the Ki on Interstitial collagenase is at least 10000 nM; at Stromelysin-1 [2], 170 nM. The molecule further came in with an inhibition in experiment [4] of 58%.
The matching figures for `COC(=O)NCCCCP(=O)(O)C[C@@H](CCc1ccccc1)C(=O)N[C@@H](CC(C)C)C(=O)Nc1ccccc1`: at least 10000 nM, 54 nM and 90%.
On to `CC(C)C[C@H](NC(=O)[C@H](CCc1ccccc1)CP(=O)(O)CCCCNC(=O)[C@@H]1CCCN1C(=O)c1ccccc1)C(=O)Nc1ccccc1`, for which the Ki at Interstitial collagenase is at least 10000 nM; in experiment [3], 2.1 nM; on Stromelysin-1 [2], 13 nM.
The matching figures for `CC(C)C[C@H](NC(=O)[C@H](CCc1ccccc1)CP(C)(=O)O)C(=O)Nc1ccccc1`: at least 10000 nM, 570 nM and 1500 nM.
With `CC(C)C[C@H](NC(=O)[C@H](CCc1ccccc1)CP(=O)(O)CCCCNC(=O)Oc1ccccc1)C(=O)Nc1ccccc1`, the Ki at Interstitial collagenase is at least 10000 nM; on Stromelysin-1 [2] it was 56 nM. This molecule also returned an inhibition in experiment [4] of 73%.
For `CC(=O)N1CCC[C@@H]1C(=O)NCCCCP(=O)(O)C[C@@H](CCc1ccccc1)C(=O)N[C@@H](CC(C)C)C(=O)Nc1ccccc1`, the Ki at Interstitial collagenase was at least 10000 nM; at Stromelysin-1 [2], 26 nM. The molecule further had an inhibition in experiment [4] of 92%.
The matching figures for `CC(C)C[C@H](NC(=O)[C@H](CCc1ccccc1)CP(=O)(O)CCCCNC(=O)Nc1ccccc1)C(=O)Nc1ccccc1`: at least 10000 nM, 70 nM and 85%.
In the case of `CC(C)C[C@H](NC(=O)[C@H](CCc1ccccc1)CP(=O)(O)CCCCN1C(=O)c2ccccc2C1=O)C(=O)Nc1ccccc1`, the Ki is at least 10000 nM on Interstitial collagenase and 20 nM in experiment [3].
Regarding `CCOC(=O)NCCCCP(=O)(O)C[C@@H](CCc1ccccc1)C(=O)N[C@@H](CC(C)C)C(=O)Nc1ccccc1`, the Ki at Interstitial collagenase is at least 10000 nM; at Stromelysin-1 [2], 16 nM. The same molecule registered an inhibition in experiment [4] of 94%.
Turning to `CC(C)C[C@H](NC(=O)[C@H](CCc1ccccc1)CP(=O)(O)CCCCN)C(=O)Nc1ccccc1`, the inhibition constant (Ki) on Interstitial collagenase was at least 10000 nM; on Stromelysin-1 [2], 3700 nM. The inhibition in experiment [4] worked out at 13%.
The matching figures for `CNC(=O)NCCCCP(=O)(O)C[C@@H](CCc1ccccc1)C(=O)N[C@@H](CC(C)C)C(=O)Nc1ccccc1`: at least 10000 nM, 130 nM and 87%.
Regarding `CC(C)C[C@H](NC(=O)[C@H](Cc1ccccc1)CP(=O)(O)CCCCN1C(=O)c2ccccc2C1=O)C(=O)NCc1ccccc1`, the IC50 against Interstitial collagenase came out at 4100 nM; at Stromelysin-1 [2], 430 nM.
Take `CC(C)C[C@H](NC(=O)[C@H](CCc1ccccc1)CP(=O)(O)CCC(=O)Nc1ccccc1)C(=O)Nc1ccccc1`: the Ki at Interstitial collagenase is at least 10000 nM; at Stromelysin-1 [2], 470 nM. The inhibition in experiment [4] was 60%.
`CC(C)C[C@H](NC(=O)[C@H](CCc1ccccc1)CP(=O)(O)CCC(=O)NCc1ccccc1)C(=O)Nc1ccccc1`: the Ki at Interstitial collagenase is at least 10000 nM; on Stromelysin-1 [5] it was 540 nM.
For the molecule `CC(C)C[C@H](NC(=O)[C@H](CCc1ccccc1)CP(=O)(O)CCCCNC(=O)NCc1ccccc1)C(=O)Nc1ccccc1`, the Ki on Interstitial collagenase is at least 10000 nM; on Stromelysin-1 [2], 50 nM. The molecule also showed an inhibition in experiment [4] of 96%.
Turning to `COc1cccc(CC[C@H](CP(=O)(O)CCCCN2C(=O)c3ccccc3C2=O)C(=O)N[C@@H](CC(C)C)C(=O)Nc2ccccc2)c1`, the Ki on Interstitial collagenase was at least 10000 nM; in experiment [3], 2.1 nM; at Stromelysin-1 [2], 2.5 nM.
